{"source": "patent US11446287B2", "about": "“Compounds and methods for EP300 or CBP modulation and indications therefor” (Opna Immuno-Oncology SA, priority 2019, dated 2022)", "data": [{"biological_target": "T1, Recombinant human CBP containing the bromodomain (CBP-BD (1043-1159)) (Homo sapiens, UniProt Q92793)", "T1 construct": "Recombinant human CBP bromodomain (CBP-BD (1043-1159)); made in house; host or cells: E. coli BL21-CodonPlus (DE3), modified pET vector", "T1 sequence (Q92793 1081-1197)": "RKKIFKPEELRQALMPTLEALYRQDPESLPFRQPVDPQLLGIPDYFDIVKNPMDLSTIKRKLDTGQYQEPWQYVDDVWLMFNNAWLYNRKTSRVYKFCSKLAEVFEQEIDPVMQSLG", "assay": "CBP Alphascreen binding assay", "conditions": "read-out: CREBBP (CBP) IC50", "how_it_was_run": "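Buffer: 50 mM HEPES pH 7.5, 50 mM NaCl, 0.01% BSA, 0.01% Triton X-100, 2 mM DTT. The signal was normalised to plate controls and fitted with a four-parameter curve to give IC50.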", "units": {"IC50": "nM"}, "values": [{"smiles": "CCOc1cc(C(=O)O)nc(OCC)c1-c1cn(C2CCN(C(=O)OC(C)(C)C)CC2)c2ncc(-c3c(C)noc3C)cc12", "note": "[P-0433, 5-(1-(1-(tert-butoxycarbonyl)piperidin-4-yl)-5-(3,5-dimethylisoxazol-4-yl)-1H-pyrrolo[2,3-b]pyridin-3-yl)-4,6-diethoxypicolinic acid]", "IC50": "0.1 to 1000"}, {"smiles": "Cc1noc(C)c1-c1cnc2c(c1)c(C1CCC(C(=O)O)CC1)cn2-c1ccc(F)cc1F", "note": "(centres unmarked) [P-0434, 4-(1-(2,4-difluorophenyl)-5-(3,5-dimethylisoxazol-4-yl)-1H-pyrrolo[2,3-b]pyridin-3-yl)cyclohexane-1-carboxylic acid]", "IC50": "0.1 to 1000"}, {"smiles": "CCOc1cc(C(=O)O)nc(OCC)c1-c1cn(C2CCN(S(C)(=O)=O)CC2)c2ncc(-c3c(C)noc3C)cc12", "note": "[P-0435, 5-(5-(3,5-dimethylisoxazol-4-yl)-1-(1-(methylsulfonyl)piperidin-4-yl)-1H-pyrrolo[2,3-b]pyridin-3-yl)-4,6-diethoxypicolinic acid]", "IC50": "0.1 to 1000"}, {"smiles": "CCOc1cc(C(=O)O)nc(OCC)c1-c1cn(-c2cccnc2)c2ncc(-c3c(C)noc3C)cc12", "note": "[P-0436, 5-(5-(3,5-dimethylisoxazol-4-yl)-1-(pyridin-3-yl)-1H-pyrrolo[2,3-b]pyridin-3-yl)-4,6-diethoxypicolinic acid]", "IC50": "0.1 to 1000"}, {"smiles": "Cc1noc(C)c1-c1cnc2c(c1)c(-c1ccc(CC(=O)O)cc1F)cn2-c1ccc(F)cc1F", "note": "[P-0437]", "IC50": "0.1 to 1000"}, {"smiles": "Cc1noc(C)c1-c1cnc2c(c1)c(-c1ccc(CC(=O)O)cc1)cn2-c1ccc(F)cc1F", "note": "[P-0438, 2-(4-(1-(2,4-difluorophenyl)-5-(3,5-dimethylisoxazol-4-yl)-1H-pyrrolo[2,3-b]pyridin-3-yl)phenyl)acetic acid]", "IC50": "0.1 to 1000"}, {"smiles": "Cc1noc(C)c1-c1cnc2c(c1)c(-c1c(Cl)cc(C(=O)O)cc1OC(F)(F)F)cn2-c1cccnn1", "note": "[P-0439, 3-chloro-4-(5-(3,5-dimethylisoxazol-4-yl)-1-(pyridazin-3-yl)-1H-pyrrolo[2,3-b]pyridin-3-yl)-5-(trifluoromethoxy)benzoic acid]", "IC50": "0.1 to 1000"}, {"smiles": "COC(=O)c1cc(Cl)c(-c2cn(-c3ccc(C4CC4)nc3)c3ncc(-c4c(C)noc4C)cc23)c(OC(F)(F)F)c1", "note": "[P-0440, methyl 3-chloro-4-(1-(6-cyclopropylpyridin-3-yl)-5-(3,5-dimethylisoxazol-4-yl)-1H-pyrrolo[2,3-b]pyridin-3-yl)-5-(trifluoromethoxy)benzoate]", "IC50": "1000 to 8000"}, {"smiles": "Cc1noc(C)c1-c1cnc2c(c1)c(-c1c(Cl)cc(C(=O)O)cc1OC(F)(F)F)cn2-c1ccc(C2CC2)nc1", "note": "[P-0441, 3-chloro-4-(1-(6-cyclopropylpyridin-3-yl)-5-(3,5-dimethylisoxazol-4-yl)-1H-pyrrolo[2,3-b]pyridin-3-yl)-5-(trifluoromethoxy)benzoic acid]", "IC50": "0.1 to 1000"}, {"smiles": "CCOc1cc(C(=O)O)c(F)cc1-c1cn(C2CCN(C(=O)OC(C)(C)C)CC2)c2ncc(-c3c(C)noc3C)cc12", "note": "[P-0442, 4-(1-(1-(tert-butoxycarbonyl)piperidin-4-yl)-5-(3,5-dimethylisoxazol-4-yl)-1H-pyrrolo[2,3-b]pyridin-3-yl)-5-ethoxy-2-fluorobenzoic acid]", "IC50": "0.1 to 1000"}, {"smiles": "COc1ccc(CC(=O)O)cc1-c1cn(-c2ccc(F)cc2F)c2ncc(-c3c(C)noc3C)cc12", "note": "[P-0443, 2-(3-(1-(2,4-difluorophenyl)-5-(3,5-dimethylisoxazol-4-yl)-1H-pyrrolo[2,3-b]pyridin-3-yl)-4-methoxyphenyl)acetic acid]", "IC50": "0.1 to 1000"}, {"smiles": "Cc1noc(C)c1-c1cnc2c(c1)c(-c1cc(F)c(C(=O)O)cc1OC(F)(F)F)cn2-c1ccc(C2CC2)nc1", "note": "[P-0444, 4-(1-(6-cyclopropylpyridin-3-yl)-5-(3,5-dimethylisoxazol-4-yl)-1H-pyrrolo[2,3-b]pyridin-3-yl)-2-fluoro-5-(trifluoromethoxy)benzoic acid]", "IC50": "0.1 to 1000"}, {"smiles": "CCOc1cc(C(=O)O)c(F)cc1-c1cn(C2CCN(C(=O)C(C)(C)C)CC2)c2ncc(-c3c(C)noc3C)cc12", "note": "[P-0445, 4-(5-(3,5-dimethylisoxazol-4-yl)-1-(1-pivaloylpiperidin-4-yl)-1H-pyrrolo[2,3-b]pyridin-3-yl)-5-ethoxy-2-fluorobenzoic acid]", "IC50": "0.1 to 1000"}, {"smiles": "CCOc1cc(C(=O)O)c(F)cc1-c1cn(C2CCN(CCC#N)CC2)c2ncc(-c3c(C)noc3C)cc12", "note": "[P-0446, 4-(1-(1-(2-cyanoethyl)piperidin-4-yl)-5-(3,5-dimethylisoxazol-4-yl)-1H-pyrrolo[2,3-b]pyridin-3-yl)-5-ethoxy-2-fluorobenzoic acid]", "IC50": "0.1 to 1000"}, {"smiles": "CCOc1cc(C(=O)O)c(F)cc1-c1cn(C2CCN(C(=O)CO)CC2)c2ncc(-c3c(C)noc3C)cc12", "note": "[P-0447, 4-(5-(3,5-dimethylisoxazol-4-yl)-1-(1-(2-hydroxyacetyl)piperidin-4-yl)-1H-pyrrolo[2,3-b]pyridin-3-yl)-5-ethoxy-2-fluorobenzoic acid]", "IC50": "0.1 to 1000"}, {"smiles": "CCc1onc(C)c1-c1cnc2c(c1)c(-c1c(Cl)cc(C(=O)O)cc1OC(F)(F)F)cn2-c1ccc(C2CC2)nc1", "note": "[P-0448, 3-chloro-4-(1-(6-cyclopropylpyridin-3-yl)-5-(5-ethyl-3-methylisoxazol-4-yl)-1H-pyrrolo[2,3-b]pyridin-3-yl)-5-(trifluoromethoxy)benzoic acid]", "IC50": "0.1 to 1000"}, {"smiles": "Cc1nnn(C)c1-c1cnc2c(c1)c(-c1cccc(C(=O)O)c1)cn2[C@@H](C)c1ccccn1", "note": "[P-0449, (S)-3-(5-(1,4-dimethyl-1H-1,2,3-triazol-5-yl)-1-(1-(pyridin-2-yl)ethyl)-1H-pyrrolo[2,3-b]pyridin-3-yl)benzoic acid]", "IC50": "0.1 to 1000"}]}]}
